What follows are molecules tested against Acetylcholinesterase (Homo sapiens, UniProt P22303) (assay: Acetylcholinesterase Inhibition Assay). Conditions: pH 8.
Acetylcholinesterase, sequence (P22303 whole entry): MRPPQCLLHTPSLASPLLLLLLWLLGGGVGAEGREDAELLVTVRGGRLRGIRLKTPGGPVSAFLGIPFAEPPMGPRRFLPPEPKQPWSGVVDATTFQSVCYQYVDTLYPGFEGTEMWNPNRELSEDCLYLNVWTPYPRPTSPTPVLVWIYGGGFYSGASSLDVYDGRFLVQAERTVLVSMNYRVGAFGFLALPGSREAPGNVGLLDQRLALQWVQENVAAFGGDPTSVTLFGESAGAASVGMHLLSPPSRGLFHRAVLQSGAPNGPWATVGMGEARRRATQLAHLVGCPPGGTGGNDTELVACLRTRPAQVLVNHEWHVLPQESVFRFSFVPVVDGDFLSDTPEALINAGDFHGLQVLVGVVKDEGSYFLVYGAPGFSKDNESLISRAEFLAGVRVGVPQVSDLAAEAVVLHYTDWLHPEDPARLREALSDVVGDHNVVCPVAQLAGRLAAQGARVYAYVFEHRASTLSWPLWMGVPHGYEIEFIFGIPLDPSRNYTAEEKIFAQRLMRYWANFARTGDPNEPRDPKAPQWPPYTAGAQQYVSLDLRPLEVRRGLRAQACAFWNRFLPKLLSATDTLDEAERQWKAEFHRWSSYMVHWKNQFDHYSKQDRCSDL
Protocol: AChI and 5,5'-dithio-bis(2-nitro-benzoic)acid (DTNB) were used as substrate for this enzymatic reaction. […] Then 50 µL of DTNB (0.5 mM) was transferred. Then the reaction was initiated by the addition of 50 µL of AChI. The hydrolysis of AChI was recorded spectrophotometrically by the formation of yellow 5-thio-2-nitrobenzoate anion as the result of the reaction of DTNB with thiocholine at a wavelength of 412 nm.
COc1ccc(OC)c(Br)c1 [2-bromo-1,4-dimethoxybenzene (14)] showed an IC50 of 7.21 nM and a Ki of 4.25 nM.
Molecule COc1ccc(C(=O)c2ccc(OC)cc2OC)cc1 [(2,4-dimethoxyphenyl)(4-methoxyphenyl)methanone (18)] has an IC50 of 5.25 nM and a Ki of 5.88 nM.
In the case of O=C(c1ccc(O)cc1Br)c1cccc(O)c1O [(2-Bromo-4-hydroxyphenyl)(2,3-dihydroxyphenyl)methanone (21)], the IC50 is reported as 4.84 nM and the Ki is reported as 3.75 nM.
Work on COc1ccc(C(=O)c2cccc(OC)c2OC)c(Br)c1 [(2-Bromo-4-methoxyphenyl)(2,3-dimethoxyphenyl)methanone (11)] yielded an IC50 of 4.2 nM and a Ki of 4.34 nM.
In the case of O=C(c1ccc(O)c(O)c1)c1ccc(O)cc1Br [(2-bromo-4-hydroxyphenyl)(3,4-dihydroxyphenyl)methanone (20)], the IC50 is reported as 4.71 nM and the Ki is reported as 4.06 nM.
With COc1ccc(C(=O)c2ccc(OC)c(OC)c2)c(Br)c1 [(2-bromo-4-methoxyphenyl)(3,4-dimethoxyphenyl)methanone (10)] the IC50 was 4.41 nM and the Ki was 3.53 nM.
O=C(c1ccc(O)cc1)c1cc(O)c(Br)cc1O [(4-Bromo-2,5-dihydroxyphenyl)(4-hydroxyphenyl)methanone (22)] gave an IC50 of 4.58 nM and a Ki of 2.78 nM.
Molecule O=C(c1ccccc1)c1cc(O)c(Br)cc1O [(4-Bromo-2,5-dihydroxyphenyl)(phenyl)methanone (23)] has an IC50 of 4.88 nM and a Ki of 3.24 nM.
COc1ccc(C(=O)c2cc(OC)c(Br)cc2OC)cc1 [(4-Bromo-2,5-dimethoxyphenyl)(4-methoxyphenyl)methanone (15)] showed an IC50 of 4.22 nM and a Ki of 3.77 nM.
In the case of COc1cc(C(=O)c2ccccc2)c(OC)cc1Br [(4-Bromo-2,5-dimethoxyphenyl)(phenyl)methanone (16)], the IC50 is reported as 4.68 nM and the Ki is reported as 5.28 nM.
O=C(c1ccc(O)cc1)c1cc(Br)c(O)cc1O [(5-Bromo-2,4-dihydroxyphenyl)(4-hydroxyphenyl)methanone (24)] gave an IC50 of 4.81 nM and a Ki of 5.72 nM.
COc1ccc(C(=O)c2cc(Br)c(OC)cc2OC)cc1 [(5-bromo-2,4-dimethoxyphenyl)(4-methoxyphenyl)methanone (19)] showed an IC50 of 4.05 nM and a Ki of 3.65 nM.

Reference: BindingDB's records for doi:10.1016/j.bioorg.2015.04.006 (Ataturk University, 2015)
